Experimental data taken from patent publication US6172099A, “Tricyclic compounds having saturated rings and medicinal compositions containing the same” (Asahi Kasei Kogyo Kabushiki Kaisha, priority 1997, dated 2001).
Counter-ions that a name gives are not always drawn. Like-named read-outs stand apart in the source and are kept apart here.

Tests used:
[1] = biological target: T1, human β3 (Homo sapiens, UniProt P13945); assay: Human β3-agonist activity (cAMP accumulation in CHO cells transfected with human β3 gene); assay type: cell-based
T1 construct: inserted the 1st exon of human β3 gene was transfected; expressed in transfected cells; host or cells: CHO cells (Chinese hamster ovary), pcDNA3 vector
Description: Human β3-agonist Activity Human β3-agonist activity was examined using CHO cells (chinese hamster ovarian cells) to which pcDNA3 (in vitrogen) inserted the 1st exon of human β3 gene was transfected. Human β3 fragment was obtained by PCR using human fat tissue cDNA (supplied from Clontech) with a […] [Krief et al, J. Clin. Invest., Vol. 91, p344-349 (1993)]. And then full length of human […] was cloned using this fragment as a probe.
The cells were cultured in a HAM F-12 medium containing 10% of fetal bovine serum, 400 μg/ml of Geneticin (Gibco BRL), 100 U/ml penicillin and 100 μg/ml streptomycin. 5×10^5 cells were placed on a 6-well plate and cultured for 24 hours, after which the medium was changed to a HAM F-12 medium without serum and was kept for 2 hours. Each test compound was first dissolved in DMSO, and then diluted with a HAM F-12 medium containing 1 mM isobutylmethyl xanthine and 1 mM ascorbic acid. A 10-fold dilution in the range of 10^-5 to 10^-12 M was added into the cells.
After culturing for 30 minutes, culture medium was withdrawn, 0.5 ml of 1 N NaOH was added and was kept for 20 minutes. Ater then 0.5 ml of 1 N acetic acid was added with subsequent agitation and centrifugation. Finally, concentration of cAMP were analyzed using cAMP EIA KIT (Cayman). […] CL316,243 was synthesized by the method given in J. Med. Chem., Vol. 35, p3081-3084 (1992).

[2] = test system: rat adipocytes; assay: Lipolytic activity in rat adipocytes (glycerol concentration); assay type: cell-based; settings: Adipocyte; for EC50: rat adipocytes, glycerol release, 37° C., 1 hour, read-out: ED50 (the source's name); for Emax: Rattus norvegicus, 1 h, read-out: Intrinsic activity(%)
Description: Lipolytic Activity in Rat Adipocytes Adipose tissues were collected from epididymis and minced. Krebs-Ringer buffer solution containing 1 mg/ml Collagenase (Sigma) and 1% of bovine serum albumin was added in an amount of 3 ml per one gram of the tissue. These cells were then incubated at 37° C. for 30 minutes with shaking and then undigested tissues were removed with a nylon filter. The resulting adipocytes were washed four times with Krebs-Ringer buffer, and then cells was diluted to 2×10^5 cells/ml with Krebs-Ringer buffer solution containing 4% of bovine serum albumin. These cells were transferred to Eppendorf tubes each in an amount of 300 μl. Each 300 μl of a culture medium containing the test compounds was added to these tubes and was held at 37° C. for 1 hour with shaking. Stimulation was stopped by cooling with ice. After centrifugation, the adipocytes were taken off with an aspirator, and then the concentration of glycerol was determined using F-KIT GLYCEROL (Behringer-Manheim).

[3] = Blood glucose lowering effect in glucose-loaded mice; assay type: in vivo, male ddy mice; settings: intraperitoneal, 10 mg/kg; 1 hour; glucose load 2 g/kg s.c.
Description: Blood Glucose Lowering Effect and Lipolytic Effect
Glucose was subcutaneously administered to male ddy mice (supplied from the dirm Nippon Charles Liver) of 6 weeks age at a dose of 2 g/kg. The animals were also treated with either one of test compounds via oral or intraperitoneal administration at a dose of 0.1 ml per 10 g of body weight. After one hour, blood sample was taken from abdominal aorta, serum was separated and served as the sample.
Blood Glucose Lowering Effect:
The samples prepared as above were analyzed for the serum glucose concentration by Auto analyzer (SUPER Z of the firm M. C. Medical). For the analyzer kit, Glucose 11 HA TEST WAKO (of the firm Wako Pure Chemical) was used.
% decrease in blood glucose=[(A-B)/(A-C)]×100
in whcih A represents the glucose concentration after loading glucose, B represents the glucose concentration after administration of the compound and C is the usual level of the glucose concentration.

[4] = Lipolytic effect in mice (serum free fatty acid); assay type: in vivo, male ddy mice; settings: intraperitoneal, 10 mg/kg; 1 hour
Description: Blood Glucose Lowering Effect and Lipolytic Effect Glucose was subcutaneously administered to male ddy mice (supplied from the dirm Nippon Charles Liver) of 6 weeks age at a dose of 2 g/kg. […] After one hour, blood sample was taken from abdominal aorta, serum was separated and served as the sample. Lipolytic Effect: Amount of free fatty acid in the samples was determined using NEFA HA TEST WAKO (of the firm Wako Pure Chemical). […] Therefore, it was shown that they are useful for preventive and therapeutic treatment of hyperlipemia and obesity.

[5] = parameters: species or system male ddy mice; settings: mouse, in vivo, po, 100 mg/kg
Description: The compounds of Example 2 was orally administered to 6 weeks age male ddy mice (supplied from the firm Nippon Chrles Liver) at a dose of 100 mg/kg.

[6] = CHO cells expressing human β3, cAMP, 30 minutes; read-out: ED50 (the source's name)
[7] = CHO, read-out: Intrinsic activity(%)

T1 sequence (P13945 1-402 limits assumed): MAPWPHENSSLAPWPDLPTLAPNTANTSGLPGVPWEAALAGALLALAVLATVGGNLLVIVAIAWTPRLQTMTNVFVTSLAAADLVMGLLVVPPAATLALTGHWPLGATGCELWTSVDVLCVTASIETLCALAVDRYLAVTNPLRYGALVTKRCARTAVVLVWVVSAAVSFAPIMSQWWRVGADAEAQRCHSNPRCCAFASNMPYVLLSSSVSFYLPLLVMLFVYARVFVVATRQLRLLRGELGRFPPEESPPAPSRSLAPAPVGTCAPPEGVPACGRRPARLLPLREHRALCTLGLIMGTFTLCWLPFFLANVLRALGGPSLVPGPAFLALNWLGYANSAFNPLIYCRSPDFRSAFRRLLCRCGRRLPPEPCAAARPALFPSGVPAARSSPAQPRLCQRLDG

Compound | EC50 [1, 6] | Emax [1, 7] | Emax ([1]; CHO; read-out: Intrinsic activity(%)) | EC50 [2] | Emax [2] | reduction of blood glucose [3] | increase of free fatty acid concentration [4] | fatal cases [5]
CS(=O)(=O)Nc1cc(C(O)CNCCOc2ccc3c4c([nH]c3c2)CCCC4)ccc1Cl (racemic) [Example 14, (±)-N-[5-[2-[2-(5,6,7,8-tetrahydro-9H-carbazol-2-yloxy)ethylamino]-1-hydroxyethyl]-2-chlorophenyl]methanesulfonamide hydrochloride] | 25 nM | 62% |  |  |  |  |  | 
CS(=O)(=O)Nc1cccc(C(O)CNCCOc2ccc3c4c([nH]c3c2)CCCC4)c1 (racemic) [Example 17, (±)-N-[3-[2-[2-(5,6,7,8-tetrahydro-9H-carbazol-2-yloxy)ethylamino]-1-hydroxyethyl]phenyl]methanesulfonamide hydrochloride] | 92 nM | 78% |  |  |  |  |  | 
C[C@H](Cc1ccc(OCC(=O)O)cc1)NC[C@H](O)c1cccc(Cl)c1 [BRL37344, reference compound] |  |  | 29% |  |  |  |  | 
CN(C)S(=O)(=O)Nc1cc([C@@H](O)CNCCOc2ccc3c4c([nH]c3c2)CCCC4)ccc1O.Cl [Example 2, (R)-N'-[5-[2-[2-(5,6,7,8-tetrahydro-9H-carbazol-2-yloxy)ethylamino]-1-hydroxyethyl]-2-hydroxyphenyl]-N,N-dimethylsulfamide hydrochloride] | 0.26 nM | 63% |  | 2000 nM | 127% | showed a reduction of blood glucose | showed an increase of free fatty acid concentration | no fatal case was found
CS(=O)(=O)Nc1cc([C@@H](O)CNCCOc2ccc3c4c([nH]c3c2)CCCC4)ccc1OCc1ccccc1 [Example 5, (R)-N-[5-[2-[2-(5,6,7,8-tetrahydro-9H-carbazol-2-yloxy)ethylamino]-1-hydroxyethyl]-2-benzyloxyphenyl]methanesulfonamide hydrochloride] | 570 nM | 101% |  |  |  |  |  | 
CS(=O)(=O)Nc1cc([C@@H](O)CNCCOc2ccc3c4c([nH]c3c2)CCCC4)ccc1O [Example 6, (R)-N-[5-[2-[2-(5,6,7,8-tetrahydro-9H-carbazol-2-yloxy)ethylamino]-1-hydroxyethyl]-2-hydroxyphenyl]methanesulfonamide hydrochloride] | 0.021 nM | 84% |  | 200 nM | 132% |  |  | 
CS(=O)(=O)Nc1cc([C@@H](O)CNCCOc2ccc3c4c([nH]c3c2)CCCC4)ccc1F [Example 9, (R)-N-[5-[2-[2-(5,6,7,8-tetrahydro-9H-carbazol-2-yloxy)ethylamino]-1-hydroxyethyl]-2-fluorophenyl]methanesulfonamide hydrochloride] | 29 nM | 47% |  |  |  |  |  | 
CS(=O)(=O)Nc1cc([C@@H](O)CNCCOc2ccc3c4c([nH]c3c2)CCCC4)ccc1Br [Example 15, (R)-N-[5-[2-[2-(5,6,7,8-tetrahydro-9H-carbazol-2-yloxy)ethylamino]-1-hydroxyethyl]-2-bromophenyl]methanesulfonamide hydrochloride] | 40 nM | 72% |  |  |  |  |  | 
CN(C)S(=O)(=O)Nc1cc([C@@H](O)CNCCOc2ccc3c4c(oc3c2)CCCC4)ccc1O [Example 22, (R)-N'-[5-[2-[2-(6,7,8,9-tetrahydrodibenzofuran-3-yloxy)ethylamino]-1-hydroxyethyl]-2-hydroxyphenyl]-N,N-dimethylsulfamide hydrochloride] | 27 nM | 84% |  |  |  |  |  | 
CS(=O)(=O)Nc1cc([C@@H](O)CNCCOc2ccc3c4c(oc3c2)CCCC4)ccc1O [Example 26, (R)-N-[5-[2-[2-(6,7,8,9-tetrahydrodibenzofuran-3-yloxy)ethylamino]-1-hydroxyethyl]-2-hydroxyphenyl]methanesulfonamide hydrochloride] | 31 nM | 111% |  | 39 nM | 118% |  |  | 
CS(=O)(=O)Nc1cc([C@@H](O)CNCCOc2ccc3c4c(sc3c2)CCCC4)ccc1O [Example 28, (R)-N-[5-[2-[2-(6,7,8,9-tetrahydrodibenzothiophen-3-yloxy)ethylamino]-1-hydroxyethyl]-2-hydroxyphenyl]methanesulfonamide hydrochloride] | 0.11 nM | 96% |  | 400 nM | 140% |  |  | 
CC(C)NCC(O)c1ccc(O)c(O)c1 (stereo not shown) [isoproterenol, reference compound] |  |  |  | 92 nM | 100% |  |  | 
